Assay results as given in patent publication US20250275539A1, “APYRASE INHIBITORS” (Texas Crop Science, Inc., priority 2024, published 2025).

test system: apyrase; experiment: Apyrase inhibition assay (screen for apyrase inhibitors, phosphate release read at 630 nm); format: biochemical; settings: inhibitor conc at 1 mM (10 μl added), 3 mM ATP, pH 6.5, room temperature 1 hr
Description: Apyrase inhibitors useful as enhancers of pesticidal activity are assessed using an in vitro assay. The method of Windsor, Bio Techniques 33:1024-1030 (November 2002) was used as follows
• 96 well plates were used for the assay: (Greiner bio-one: REF-655901-96 well, PS, F-bottom, Clear, Non-binding)
• Reaction Buffer: 60 mM Hepes; 3 mM MgCl2, 3 mM CaCl2) and 3 mM ATP (pH 6.5) • Development Buffer A: 2% aqueous ammonium molybdate • Development Buffer B: 11% ascorbic acid in 37.5% TCA in water • Stop buffer C: 2% trisodium citrate in 2% acetic acid solution in water
• Add 100 μl of reaction buffer to each well. • Add 10 μl of DMSO (control) or inhibitor/compound or compounds such as N1915 or orthovanadate to each well. (use inhibitor conc at 1 mM; orthovanadate at 2 mM and N1915 at 1 mM) • Add 10 μl of apyrase (concentration based on optimization—Dilute 1 U/μl enzyme to different concentrations such as 0.1 U, 0.05 U, 0.0025, 0.001 U, 0.0005 U—to find a good range) • Incubate plate at room temperature for 1 hr • Mix development buffer A and B in the ratio of 1:1.5 (just before use). • Add 50 μl of A: B mix in each well (incubate for 2 mins) • Add 50 μl of C in each well • Measure/Read Absorbance of plate @630 nm
Inhibitory data for the apyrase assay described above are provided for selected compounds in Table 3. D is inhibition of 0% to 10%, C is inhibition from 10% to 20%, B is inhibition from 20% to 30%, and A is inhibition above 30%. Blank entries signify compounds that were not tested.

Compound | Inhibition
CCCc1ccc(S(=O)(=O)Nc2ccc(S(=O)(=O)N=C3CCCCCN3)cc2)cc1 [Compound A-52, N-(azepan-2-ylidene)-4-((4-propylphenyl)sulfonamido) benzenesulfonamide] | C (C is inhibition from 10% to 20%)
CCCc1ccc(S(=O)(=O)Nc2ccccc2C(=O)OC)cc1 [Compound A-53, methyl 2-((4-propylphenyl)sulfonamido) benzoate] | C (C is inhibition from 10% to 20%)
CCCc1ccc(S(=O)(=O)Nc2ccc3c(c2)OCCO3)cc1 [Compound A-54, N-(2,3-dihydrobenzo[b][1,4]dioxin-6-yl)-4-propylbenzenesulfonamide] | D (D is inhibition of 0% to 10%)
CCCc1ccc(S(=O)(=O)Nc2ccccc2Br)cc1 [Compound A-55, N-(2-bromophenyl)-4-propylbenzenesulfonamide] | D (D is inhibition of 0% to 10%)
Cc1cccc(NS(=O)(=O)c2ccc(Cl)cc2)c1 [Compound A-56, 4-chloro-N-(m-tolyl)benzenesulfonamide] | C (C is inhibition from 10% to 20%)
Cc1cccc(NS(=O)(=O)c2ccccc2)c1 [Compound A-57, N-(m- tolyl)benzenesulfonamide] | D (D is inhibition of 0% to 10%)
Cc1cccc(NS(=O)(=O)c2ccc(F)cc2)c1 [Compound A-58, 4-fluoro-N-(m-tolyl)benzenesulfonamide] | D (D is inhibition of 0% to 10%)
Cc1cccc(NS(=O)(=O)c2ccc(S(=O)(=O)N3CCCC3)cc2)c1 [Compound A-60, 4-(pyrrolidin-1-ylsulfonyl)-N-(m-tolyl)benzenesulfonamide] | D (D is inhibition of 0% to 10%)
Cc1cccc(NS(=O)(=O)c2ccc(C=CC(=O)O)cc2)c1 [Compound A-61, 3-(4-(N-(m-tolyl)sulfamoyl)phenyl)acrylic acid] | D (D is inhibition of 0% to 10%)
Cc1cccc(NS(=O)(=O)c2ccc(OC(F)(F)F)cc2)c1 [Compound A-63, N-(m-tolyl)-4-(trifluoromethoxy)benzenesul-fonamide] | C (C is inhibition from 10% to 20%)
Cc1cccc(NS(=O)(=O)c2ccc(C(=O)O)cc2)c1 [Compound A-65, 4-(N-(m-tolyl)sulfamoyl)benzoic acid] | B (B is inhibition from 20% to 30%)
Cc1cccc(NS(=O)(=O)c2ccc(C(=O)NCC(F)(F)F)cc2)c1 [Compound A-66, 4-(N-(m-tolyl)sulfamoyl)-N-(2,2,2-trifluoroethyl)benzamide] | C (C is inhibition from 10% to 20%)
CCCc1ccc(S(=O)(=O)Nc2cc(Cl)ccc2Sc2nncn2C)cc1 [Compound A-67, N-(5-chloro-2-((4-methyl-4H-1,2,4-triazol-3-yl)thio)phenyl)-4-propylbenzenesulfonamide] | C (C is inhibition from 10% to 20%)
CCCc1ccc(S(=O)(=O)Nc2cc(OC)c(Cl)cc2OC)cc1 [Compound A-68, N-(4-chloro-2,5-dimethoxyphenyl)-4-propylbenzenesulfonamide] | D (D is inhibition of 0% to 10%)
CCCc1ccc(S(=O)(=O)Nc2ccc3[nH]ncc3c2)cc1 [Compound A-69, N-(1H-indazol-5-yl)-4-propylbenzenesulfonamide] | D (D is inhibition of 0% to 10%)
CCCc1ccc(S(=O)(=O)Nc2cccc([N+](=O)[O-])c2)cc1 [Compound A-70, N-(3-nitrophenyl)-4-propylbenzenesulfonamide] | C (C is inhibition from 10% to 20%)
CCCc1ccc(S(=O)(=O)Nc2ccccc2Cl)cc1 [Compound A-71, N-(2-chlorophenyl)-4-propylbenzenesulfonamide] | D (D is inhibition of 0% to 10%)
CCCc1ccc(S(=O)(=O)Nc2cccc(S(N)(=O)=O)c2)cc1 [Compound A-72, 4-propyl-N-(3-sulfamoylphenyl)benzene-sulfonamide] | C (C is inhibition from 10% to 20%)
CCCc1ccc(S(=O)(=O)Nc2ccccc2C(F)(F)F)cc1 [Compound A-73, 4-propyl-N-(2-(trifluoromethyl)phenyl) benzenesulfonamide] | D (D is inhibition of 0% to 10%)
CCCc1ccc(S(=O)(=O)Nc2cc(Cl)ccc2OC)cc1 [Compound A-74, N-(5-chloro-2-methoxyphenyl)-4-propylbenzenesulfonamide] | C (C is inhibition from 10% to 20%)

Compound | Inhibition
CCCc1ccc(S(=O)(=O)Nc2cccc(C(=O)O)c2)cc1 [Compound A-75, 3-((4-propylphenyl)sulfonamido) benzoic acid] | D (D is inhibition of 0% to 10%)
CCCc1ccc(S(=O)(=O)Nc2c(C(C)C)cccc2C(C)C)cc1 [Compound A-76, N-(2,6-diisopropylphenyl)-4-propylbenzenesulfonamide] | C (C is inhibition from 10% to 20%)
CCCc1ccc(S(=O)(=O)Nc2cccc(NC(C)=O)c2)cc1 [Compound A-77, N-(3-((4-propylphenyl)sulfonamido)phenyl)acetamide] | D (D is inhibition of 0% to 10%)
CCCc1ccc(S(=O)(=O)Nc2ccc(C(=O)N(CC)CC)cc2)cc1 [Compound A-78, N,N-diethyl-4-((4-propylphenyl)sulfonamido) benzamide] | D (D is inhibition of 0% to 10%)
CCCc1ccc(S(=O)(=O)Nc2ccc(S(=O)(=O)N(C)C3CCCCC3)cc2)cc1 [Compound A-79, N-cyclohexyl-N-methyl-4-((4-propylphenyl)sulfonamido) benzenesulfonamide] | A (A is inhibition above 30%)
CCCc1ccc(S(=O)(=O)Nc2ccc(S(=O)(=O)NC)cc2)cc1 [Compound A-80, N-methyl-4-((4-propylphenyl)sulfonamido) benzenesulfonamide] | D (D is inhibition of 0% to 10%)
CCCc1ccc(S(=O)(=O)Nc2ccc(C(N)=O)cc2)cc1 [Compound A-81, 4-((4-propylphenyl)sulfonamido) benzamide] | D (D is inhibition of 0% to 10%)
CCCc1ccc(S(=O)(=O)Nc2ccc(C)cc2Cl)cc1 [Compound A-82, N-(2-chloro-4-methylphenyl)-4-propylbenzenesulfonamide] | C (C is inhibition from 10% to 20%)
CCCCc1ccc(NS(=O)(=O)c2ccc(CCC)cc2)cc1 [Compound A-83, N-(4-butylphenyl)-4-propylbenzenesulfonamide] | B (B is inhibition from 20% to 30%)
CCCc1ccc(S(=O)(=O)Nc2cccc(C(N)=O)c2)cc1 [Compound A-84, 3-((4-propylphenyl)sulfonamido) benzamide] | D (D is inhibition of 0% to 10%)
CCCc1ccc(S(=O)(=O)Nc2ccc(S(=O)(=O)Nc3nccs3)cc2)cc1 [Compound A-85, 4-propyl-N-(4-(N-(thiazol-2-yl)sulfamoyl)phenyl)benzene-sulfonamide] | D (D is inhibition of 0% to 10%)
CCCc1ccc(S(=O)(=O)Nc2ccccc2C(N)=O)cc1 [Compound A-86, 2-((4-propylphenyl)sulfonamido) benzamide] | D (D is inhibition of 0% to 10%)
CCCc1ccc(S(=O)(=O)Nc2c(F)cccc2F)cc1 [Compound A-87, N-(2,6-difluorophenyl)-4-propylbenzenesulfonamide] | C (C is inhibition from 10% to 20%)
CCCc1ccc(S(=O)(=O)Nc2cc(C)ccc2OC)cc1 [Compound A-88, N-(2-methoxy-5-methylphenyl)-4-propylbenzenesulfonamide] | D (D is inhibition of 0% to 10%)
CCCc1ccc(S(=O)(=O)Nc2ccc(C)c(S(=O)(=O)N(C)C)c2)cc1 [Compound A-89, N,N,2-trimethyl-5-((4-propylphenyl)sulfonamido) benzenesulfonamide] | D (D is inhibition of 0% to 10%)
CCCc1ccc(S(=O)(=O)Nc2cc(S(=O)(=O)N3CCCCC3)ccc2C)cc1 [Compound A-90, N-(2-methyl-5-(piperidin-1-ylsulfonyl)phenyl)-4-propylbenzenesulfonamide] | A (A is inhibition above 30%)
CCCc1ccc(S(=O)(=O)Nc2ccccc2Cc2ccccc2)cc1 [Compound A-91, N-(2-benzylphenyl)-4-propylbenzenesulfonamide] | B (B is inhibition from 20% to 30%)
CCCc1ccc(S(=O)(=O)Nc2c(C)cccc2C)cc1 [Compound A-92, N-(2,6-dimethylphenyl)-4-propylbenzenesulfonamide] | B (B is inhibition from 20% to 30%)
CCCc1ccc(S(=O)(=O)Nc2ccc(-c3nnc4n3CCCCC4)cc2)cc1 [Compound A-93, 4-propyl-N-(4-(6,7,8,9-tetrahydro-5H-[1,2,4]triazolo[4,3-a]azepin-3-yl)phenyl) benzenesulfonamide] | D (D is inhibition of 0% to 10%)
CCCc1ccc(S(=O)(=O)Nc2ccccc2NS(=O)(=O)c2ccc(F)cc2)cc1 [Compound A-94, 4-fluoro-N-(2-((4-propylphenyl)sulfonamido)phenyl)benzenesulfonamide] | A (A is inhibition above 30%)
